Measurements: patent US12171764B2, “Treatment of a disease of the gastrointestinal tract with a JAK or other kinase inhibitor” (BIORA THERAPEUTICS, INC., priority 2018, dated 2024)
Read-outs that look alike come from different tables or passages of the source.

How the values were obtained:
[1] = Example 13: tacrolimus blood pharmacokinetics, oral vs intra-cecal administration; format: in vivo, Yorkshire-Cross farm swine; conditions: swine
From the text: (§1) No further randomization procedure was employed.

[2] = Example 10: tacrolimus blood/plasma pharmacokinetics, oral vs intra-cecal ingestible device delivery; format: in vivo, Yorkshire-Cross farm swine
Method: (§2) The primary objective of this study was to compare the tissue, plasma, rectal sample, and GI content pharmacokinetics of tacrolimus through oral versus intra-cecal ingestible device delivery in normal Yorkshire-Cross farm swine.
as §1
Animals in Group 1 received an ingestible device containing 0.8 mL of vehicle solution (80% alcohol, 20% HCO-60). Animals in Group 2 received orally […] liquid formulation of tacrolimus at 4 mg/0.8 mL per animal (Prograf: 5 mg/mL). Animals in Group 3 received intra-cecally an ingestible device containing tacrolimus at 1 mg in 0.8 mL per ingestible device. Animals in Group 4 received intra-cecally an ingestible device containing tacrolimus at 2 mg in 0.8 mL per ingestible device. Animals in Group 5 received intra-cecally an ingestible device containing tacrolimus at 4 mg in 0.8 mL per ingestible device. To control for potential confounding effects of the surgery, all groups fast on Day −11 at least 24 hr before being subjected to anesthesia followed by surgical placements of a cecal port by a veterinary surgeon at Day −10. All animals were fasted for at least 12 hr prior to dosing on Day 1. Animals were dosed via either intra-cecal dosing (IC) or oral dosing (PO) at Day 1 (between 6-8 p.m.). All animals resumed feeding at approximately 4 hours after dose (11-12 p.m. after dosing).
Approximately 200˜400 mg of rectal content were collected, if available, with a fecal swab (Copan Diagnostics Nylon Flocked Dry Swabs, 502CS01). The fecal swab was pre-weighed and weighed after collection in the collection tube (Sterile Tube and Cap No Media, PFPM913S), and the sample weight was recorded. The fecal swab was broken via the breakpoint, and was stored in the collection tube, and immediately frozen at −70° C. […] Immediately following euthanasia, tissue was collected.
[…] Plasma, rectal content sample, tissue collection, GI content collection and related procedures/storage/shipments was the same as those employed in Group 1.
Group 3 animals were administered a single intra-cecal ingestible device containing tacrolimus at 1-mg/0.8 mL (0.02 mg/kg) (in the vehicle solution) on Day 1 by a veterinary surgeon. […] All samples were analyzed for tacrolimus.
Group 4 animals were administered a single intra-cecal ingestible device of tacrolimus at 2 mg/0.8 mL (0.04 mg/kg) (in sterile vehicle solution) on Day 1 by a veterinary surgeon. […] All samples were analyzed for tacrolimus.
Group 5 animals are administered a single intra-cecal ingestible device containing tacrolimus at 4 mg/0.8 mL (0.08 mg/kg) (in the vehicle solution) on Day 1 by a veterinary surgeon. […] All samples were analyzed for tacrolimus. […]

[3] = Example 10: tacrolimus in GI tissue, luminal content and rectal content, oral vs intra-cecal ingestible device delivery; format: in vivo, Yorkshire-Cross farm swine; conditions: FIG. 92
Method: as §2
Animals in Group 1 received an ingestible device containing 0.8 mL of vehicle solution (80% alcohol, 20% HCO-60). Animals in Group 2 received orally […] liquid formulation of tacrolimus at 4 mg/0.8 mL per animal (Prograf: 5 mg/mL). Animals in Group 3 received intra-cecally an ingestible device containing tacrolimus at 1 mg in 0.8 mL per ingestible device. […]
Approximately 200˜400 mg of rectal content were collected, if available, with a fecal swab (Copan Diagnostics Nylon Flocked Dry Swabs, 502CS01). The fecal swab was pre-weighed and weighed after collection in the collection tube (Sterile Tube and Cap No Media, PFPM913S), and the sample weight was recorded. […]
For tissue necropsy, small intestine fluid and cecal fluid were collected separately from all the animals into two separate square plastic bottles, and stored at −20° C. The length and diameter of the cecum and the colon was measured from one animal in each group and recorded for reference. […] All samples were weighed, and the tissue sample weights were recorded. […] Around 3 grams of the total punched sample were collected into a pre-weighed 15-mL conical tube, and the tissue weight was recorded. […]

[4] = animals treated IC (Groups 5-6); FIG. 110
Method: Briefly, samples were analyzed by LC-MS/MS against matrix-matched standard curves.

[5] = tested on: IL-6, GM-CSF, IL-15, IL-2, IL-12, IL-13, TNF-α, and INF-γ; experiment: Tofacitinib pharmacodynamics: JAK/STAT pathway cytokines in plasma and colon tissue by ELISA in DSS-induced colitis mice; format: in vivo, male C57BL/6 mice
[6] = C57BL/6, mouse, in vivo, po, 15 mg/kg
[7] = C57BL/6, mouse, in vivo, 10 mg/kg

C=CC[C@@H]1/C=C(\C)C[C@H](C)C[C@H](OC)[C@H]2O[C@@](O)(C(=O)C(=O)N3CCCC[C@H]3C(=O)O[C@H](/C(C)=C/[C@@H]3CC[C@@H](O)[C@H](OC)C3)[C@H](C)[C@@H](O)CC1=O)[C@H](C)C[C@@H]2OC [tacrolimus]
Trough (12 hr) ([1]; IC 0.02 mg/kg (Group 3)): 0.746 ng/mL
Cmax ([1]; IC 0.04 mg/kg): 9.197 ± 3.30 ng/mL
Trough (12 hr) ([1]; IC 0.04 mg/kg (Group 4)): 1.96 ng/mL
Trough (12 hr) ([1]; IC 0.09 mg/kg (Group 5)): 4.35 ng/mL
Cmax ([1]; PO 0.09 mg/kg): 3.53 ± 3.84 ng/mL
Trough (12 hr) ([1]; PO 0.09 mg/kg (Group 2), 0.09 mg/kg): 0.568 ng/mL
Tmax ([2]; Route IC, Dose 0.02 (mg · kg)): 1
Cmax ([2]; Route IC, Dose 0.04 (mg · kg)): 9.197 ± 3.30 ng/mL
AUC 0-12 hr ([2]; Route PO, Dose 0.09 (mg · kg)): 16.83 ± 3.641 ng·h/mL
Tmax ([2]; Route PO, Dose 0.09 (mg · kg)): 1
rectal content concentration at 12 hours post-treatment ([3]; IC capsule groups): higher rectal content concentration
rectal content concentration at 12 hours post-treatment ([3]; PO group): no detectable level

C[C@@H]1CCN(C(=O)CC#N)C[C@@H]1N(C)c1ncnc2[nH]ccc12.O=C(O)CC(O)(CC(=O)O)C(=O)O [tofacitinib citrate]
blood exposure [4]: limited blood exposure
IL-6 expression in plasma ([5]; PO or IC administration, 1 h and 3 h post-treatment (data not shown)): inhibition of IL-6 expression was observed
IL-6 expression in colon tissue ([5]; all IC treated groups and the high dose PO group (45 mg/kg), FIG. 112B): inhibition of IL-6 expression was sustained through 24 h post-dose
IL-6 expression in colon tissue ([5]; low dose PO group (15 mg/kg) by 12 h post-dose): Recovery from IL-6 inhibition was observed

C[C@@H]1CCN(C(=O)CC#N)C[C@@H]1N(C)c1ncnc2[nH]ccc12 [tofacitinib, 3-[(3R,4R)-4-methyl-3-[methyl(7H-pyrrolo[2,3-d]pyrimidin-4-yl)amino]piperidin-1-yl]-3-oxopropanenitrile]
T1/2 [6]: 2.53 h
T1/2 [7]: 2.16 h
GM-CSF levels in plasma or colon tissue ([5]; IC vs PO treatment groups (data not shown)): nor was there a significant difference in GM-CSF levels
